The CheMixHub viscosity set

Test: xn = mol fraction of the nth substance listed

CN1CCCC1=O + CN(C)C=O
viscosity [mPa·s], 101 kPa
Details | x2 = 0.1003 | x2 = 0.2001 | x2 = 0.2997 | x2 = 0.4 | x2 = 0.5007 | x2 = 0.595 | x2 = 0.7 | x2 = 0.8 | x2 = 0.9003
303.15 K | 1.417 | 1.328 | 1.249 | 1.17 | 1.085 | 1.018 | 0.943 | 0.872 | 0.809
313.15 K | 1.231 | 1.152 | 1.085 | 1.02 | 0.948 | 0.891 | 0.832 | 0.775 | 0.721
323.15 K | 1.097 | 1.024 | 0.967 | 0.908 | 0.846 | 0.794 | 0.742 | 0.692 | 0.646

COC(=O)CCCCC(=O)OC + CCC(C)=O
100 kPa
Details | viscosity [mPa·s]
308.15 K, x1 = 0.2002 | 0.5865
318.15 K, x1 = 0.3002 | 0.6465
323.15 K, x1 = 0.4004 | 0.7425

CN1CCCC1=O + CC(C)O
298.15 K, 101 kPa
Details | viscosity [mPa·s]
x1 = 0.0609 | 1.8
x1 = 0.1034 | 1.703
x1 = 0.1399 | 1.641
x1 = 0.1993 | 1.57
x1 = 0.2332 | 1.539
x1 = 0.3074 | 1.5
x1 = 0.3626 | 1.454
x1 = 0.4127 | 1.45
x1 = 0.4612 | 1.481
x1 = 0.5022 | 1.488
x1 = 0.5599 | 1.497
x1 = 0.6107 | 1.511
x1 = 0.6683 | 1.53
x1 = 0.7081 | 1.543
x1 = 0.7567 | 1.561
x1 = 0.794 | 1.579
x1 = 0.8562 | 1.608
x1 = 0.9199 | 1.633

CCC(=O)CC + CCCCN(CCCC)CCCC
viscosity [mPa·s], 101 kPa
Details | 298.15 K | 303.15 K | 308.15 K
x2 = 0.05 | 0.468 | 0.442 | 0.419
x2 = 0.1004 | 0.498 | 0.47 | 0.444
x2 = 0.1502 | 0.533 | 0.502 | 0.473
x2 = 0.2006 | 0.566 | 0.531 | 0.502
x2 = 0.25 | 0.6 | 0.563 | 0.529
x2 = 0.2996 | 0.636 | 0.595 | 0.559
x2 = 0.3995 | 0.71 | 0.662 | 0.621
x2 = 0.4998 | 0.79 | 0.734 | 0.684
x2 = 0.6004 | 0.874 | 0.809 | 0.752
x2 = 0.7005 | 0.965 | 0.889 | 0.824
x2 = 0.7998 | 1.065 | 0.978 | 0.901
x2 = 0.8462 | 1.109 | 1.016 | 0.934
x2 = 0.8953 | 1.16 | 1.06 | 0.976
x2 = 0.9489 | 1.212 | 1.106 | 1.017
